Laboratory results from US4419123A, “Herbicidal 4-trifluoromethyl-3'-carbon-substituted-4'-substituted diphenyl ethers” (Rohm and Haas Company, priority 1981, dated 1983).

Tests used:
[1] = Postemergence herbicidal activity (% control) against monocot weeds; assay type: in vivo; conditions: post-emergence, 336 h, average, about two weeks after application, read-out: Herbicidal activity (% control), postemergence, monocots; for activity at 4483.4 g/ha: 4 lb./A.; for activity at 11208.5 g/ha: 10 lb./A.; for activity at 2241.7 g/ha: 2 lb./A.
Text: (§1) barnyardgrass (Echinochloa crusgalli) crabgrass (Digitaria spp.) nutsedge (Cyperus esculentus)
(§2) At 2 and 4 pounds per acre:
(§3) **Bermudagrass (Cynodon dactylon)
(§4) *downy brome (Bromus tectorum) foxtail (Setaria faberii)
(§5) Johnsongrass (Sorghum halepense) […]
(§6) quackgrass (Agropyron repens)
(§7) *ryegrass (Lolium perenne)
(§8) *wild oats (Avena factua)
(§9) *yellow millet (Panicum miliaceum)
(§10) The following test procedure is employed.

[2] = Postemergence herbicidal activity (% control) against dicot weeds; conditions: post-emergence, 336 h; for activity at 4483.4 g/ha: read-out: Herbicidal activity (% control), postemergence, dicots, 4 lb./A., average, about two weeks after application; for activity at 11208.5 g/ha: read-out: Herbicidal activity (% control), postemergence, dicots, 10 lb./A., average, about two weeks after application; for activity at 2241.7 g/ha: read-out: Herbicidal activity (% control), postemergence, dicots, 2 lb./A., average, about two weeks after application
[3] = Preemergence herbicidal activity (% control) against monocot weeds; assay type: in vivo; conditions: pre-emergence, 336 h, average, about two weeks after application, read-out: Herbicidal activity (% control), preemergence, monocots; for activity at 4483.4 g/ha: 4 lb./A.; for activity at 11208.5 g/ha: 10 lb./A.; for activity at 2241.7 g/ha: 2 lb./A.
Text: as §1, §2, §3, §4, §5, §6, §7, §8, §9, §10

[4] = Preemergence herbicidal activity (% control) against dicot weeds; conditions: pre-emergence, 336 h; for activity at 4483.4 g/ha: read-out: Herbicidal activity (% control), preemergence, dicots, 4 lb./A., average, about two weeks after application; for activity at 11208.5 g/ha: read-out: Herbicidal activity (% control), preemergence, dicots, 10 lb./A., average, about two weeks after application; for activity at 2241.7 g/ha: read-out: Herbicidal activity (% control), preemergence, dicots, 2 lb./A., average, about two weeks after application

SMILES | activity at 4483.4 g/ha [1] [%] | activity at 11208.5 g/ha [1] [%] | activity at 4483.4 g/ha [2] [%] | activity at 11208.5 g/ha [2] [%] | activity at 4483.4 g/ha [3] [%] | activity at 11208.5 g/ha [3] [%] | activity at 4483.4 g/ha [4] [%] | activity at 11208.5 g/ha [4] [%] | activity at 2241.7 g/ha [1] [%] | activity at 2241.7 g/ha [2] [%] | activity at 2241.7 g/ha [3] [%] | activity at 2241.7 g/ha [4] [%]
CCOc1cc(Oc2ccc(C(F)(F)F)cc2)ccc1[N+](=O)[O-] [Example 1] | 57 | 82 | 58 | 100 | 76 | 42 | 45 | 35 |  |  |  | 
COc1cc(Oc2ccc(C(F)(F)F)cc2Cl)ccc1[N+](=O)[O-] [Example 2] | 99 | 100 | 100 |  | 97 | 97 | 80 | 100 |  |  |  | 
CCCOc1cc(Oc2ccc(C(F)(F)F)cc2Cl)ccc1[N+](=O)[O-] [Example 5] | 99 | 100 | 100 |  | 84 | 97 | 78 | 100 |  |  |  | 
CCCCOc1cc(Oc2ccc(C(F)(F)F)cc2Cl)ccc1[N+](=O)[O-] [Example 6] | 91 | 97 | 94 | 100 | 77 | 65 | 55 | 70 |  |  |  | 
CCOc1cc(Oc2ccc(C(F)(F)F)cc2C#N)ccc1[N+](=O)[O-] [Example 7, 2-Cyano-α,α,α-trifluoro-p-tolyl-3-ethoxy-4-nitrophenyl ether] | 75 | 100 | 77 |  | 65 | 61 | 57 | 60 | 82 | 80 | 65 | 54
CCCOc1cc(Oc2ccc(C(F)(F)F)cc2C#N)ccc1[N+](=O)[O-] [Example 8] | 48 | 85 | 80 | 100 | 61 | 81 | 57 | 82 | 35 | 66 | 52 | 46
Cc1cc(Oc2ccc(C(F)(F)F)cc2C#N)ccc1[N+](=O)[O-] [Example 9] | 97 | 100 | 81 |  | 90 | 99 | 66 | 92 | 82 | 75 | 81 | 67
O=[N+]([O-])c1ccc(Oc2ccc(C(F)(F)F)cc2Cl)cc1O [Example 10, 2-Chloro-α,α,α-trifluoro-p-tolyl-3-hydroxy-4-nitrophenylether] | 67 |  | 98 |  | 70 |  | 100 |  | 17 | 85 | 66 | 70
C=CCOc1cc(Oc2ccc(C(F)(F)F)cc2Cl)ccc1[N+](=O)[O-] [Example 12] | 77 |  | 100 |  | 86 |  | 96 |  | 99 | 100 | 72 | 93
C#CCOc1cc(Oc2ccc(C(F)(F)F)cc2Cl)ccc1[N+](=O)[O-] [Example 13] | 77 |  | 98 |  | 76 |  | 90 |  | 100 |  | 78 | 72
CC#CCCOc1cc(Oc2ccc(C(F)(F)F)cc2Cl)ccc1[N+](=O)[O-] [Example 14] | 61 |  | 94 |  | 64 |  | 78 |  | 91 | 100 | 30 | 22
O=[N+]([O-])c1ccc(Oc2ccc(C(F)(F)F)cc2Cl)cc1OCCO [Example 15, 2-chloro-α,α,α-trifluoro-p-tolyl-3-(2-hydroxyethoxy)-4-nitrophenyl ether] | 79 |  | 99 |  | 99 |  | 100 |  | 76 | 94 | 68 | 90
CCOCCOc1cc(Oc2ccc(C(F)(F)F)cc2Cl)ccc1[N+](=O)[O-] [Example 16] | 77 |  | 96 |  | 86 |  | 94 |  | 82 | 94 | 67 | 75
CN(C)CCOc1cc(Oc2ccc(C(F)(F)F)cc2Cl)ccc1[N+](=O)[O-] [Example 17, 2-chloro-α,α,α-trifluoro-p-tolyl-3-(2-dimethylaminoethoxy)-4-nitrophenyl ether] | 45 |  | 89 |  | 51 |  | 84 |  | 39 | 98 | 20 | 31
O=[N+]([O-])c1ccc(Oc2ccc(C(F)(F)F)cc2Cl)cc1NCCO [Example 22] | 60 |  | 99 |  | 72 |  | 98 |  | 70 | 100 | 63 | 77
O=C(O)COc1cc(Oc2ccc(C(F)(F)F)cc2Cl)ccc1[N+](=O)[O-] [Example 23] | 82 |  | 100 |  | 90 |  | 64 |  | 71 | 100 | 55 | 87
CCOC(=O)COc1cc(Oc2ccc(C(F)(F)F)cc2Cl)ccc1[N+](=O)[O-] [Example 24] | 86 |  | 99 |  | 91 |  | 68 |  | 84 | 100 | 62 | 97
CC(Oc1cc(Oc2ccc(C(F)(F)F)cc2Cl)ccc1[N+](=O)[O-])C(=O)O (stereo not drawn) [Example 25, 2-Chloro-α,α,α-trifluoro-p-tolyl-3-(1-carboxyethoxy)-4-nitrophenyl ether] | 97 |  | 100 |  | 87 |  | 88 |  | 88 | 100 | 40 | 93
